# Data: US11266626B2, “Reduction of ER-MAM-localized APP-C99 and methods of treating alzheimer's disease” (THE TRUSTEES OF COLUMBIA UNIVERSITY IN THE CITY OF NEW YORK, priority 2015, dated 2022)
# Entries after “also recorded” stand apart in the source; their conditions may differ.
# How the values were obtained:
# PS-DKO MEFs = experiment: Uptake of Bodipy-labeled fluorescent cholesterol; format: cell-based, mouse
# Method: To measure uptake of fluorescent cholesterol, cultured cells were incubated with 1 μM Bodipylabeled cholesterol (Avanti Lipids; 810255P) for 12 h. Alternatively, Bodipy-cholesterol was complexed with methyl-β-cyclodextrin at a 1:10 molar ratio of sterol:cyclodextrin and added to cultured cells to a final concentration of 25 μg/ml for 6-8 h. Cholesterol droplets were visualized by microscopy and fluorescence was quantified by ImageJ.
# PS-DKO cells [1] = experiment: Lipidomic analyses of membranes; format: cell-based, mouse; conditions: for ceramide levels / sphingomyelin levels: PS-DKO cells, BI 100 nM or myriocin 5 μM
# Method: (§1) Lipid extracts were prepared via chloroform-methanol extraction, spiked with appropriate internal standards, and analyzed using a 6490 Triple Quadrupole LC/MS system (Agilent Technologies, Santa Clara, Calif.) as described previously (6, 7). Glycerophospholipids and sphingolipids were separated with normal-phase HPLC using an Agilent Zorbax Rx-Sil column (inner diameter 2.1×100 mm) under the following conditions: mobile phase A (chloroform:methanol:1 M ammonium hydroxide, 89.9:10:0.1, v/v) and mobile phase B (chloroform:methanol:water:ammonium hydroxide, 55:39.9:5:0.1, v/v); 95% A for 2 min, linear gradient to 30% A over 18 min and held for 3 min, and linear gradient to 95% A over 2 min and held for 6 min. Quantification of lipid species was accomplished using multiple reaction monitoring (MRM) transitions that were developed in earlier studies (6) in conjunction with referencing of appropriate internal standards: ceramide d18:1/17:0 and sphingomyelin d18:1/12:0 (Avanti Polar Lipids, Alabaster, Ala.).
# as §1, with “Lipids were extracted from equal amounts of material (30 μg protein/sample). Lipid extracts” for “Lipid extracts”, “described previously (Chan et al., 2012). Glycerophospholipids and” for “described previously (6, 7). Glycerophospholipids and”, “hydroxide, 89.9:10:0.1, v/v/v) and mobile” for “hydroxide, 89.9:10:0.1, v/v) and mobile”, “hydroxide, 55:39.9:5:0.1, v/v/v); 95% A” for “hydroxide, 55:39.9:5:0.1, v/v); 95% A”, “earlier studies (Chan et al., 2012) in conjunction” for “earlier studies (6) in conjunction”, “Alabaster, Ala.). Values are represented as mole fraction with respect to total lipid (% molarity)” for “Alabaster, Ala.).”
# Lipids were extracted from equal amounts of material (30 μg protein/sample). Lipid extracts were prepared via chloroform-methanol extraction, spiked with appropriate internal standards, and analyzed using a 6490 Triple Quadrupole LC/MS system (Agilent Technologies, Santa Clara, Calif.) as described previously (Chan et al, 2012). Glycerophospholipids and sphingolipids were separated with normal-phase HPLC using an Agilent Zorbax Rx-Sil column (inner diameter 2.1×100 mm) under the following conditions: mobile phase A (chloroform:methanol:1 M ammonium hydroxide, 89.9:10:0.1, v/v/v) and mobile phase B (chloroform:methanol:water:ammonium hydroxide, 55:39.9:5:0.1, v/v/v/v); 95% A for 2 min, linear gradient to 30% A over 18 min and held for 3 min, and linear gradient to 95% A over 2 min and held for 6 min. Quantification of lipid species was accomplished using multiple reaction monitoring (MRM) transitions that were developed in earlier studies (Chan et al, 2012) in conjunction with referencing of appropriate internal standards: ceramide d18:1/17:0 and sphingomyelin d18:1/12:0 (Avanti Polar Lipids, Alabaster, Ala., USA). Values are represented as mole fraction with respect to total lipid (% molarity). For this, lipid mass (in moles) of any specific lipid is normalized by the total mass (in moles) of all the lipids measured (Chan et al, 2012). In addition, all of our results were further normalized by protein content.
# PS-DKO cells [2] = experiment: Staining of lipid droplets with LipidTox Green; format: cell-based, mouse; conditions: BI 100 nM, desipramine 10 μM, GW4869 5 μM, 12-16 h, Gleevec 10 μM
# Method: (§2) Quantification of total cholesterol and cholesteryl esters was performed using the Cholesterol/Cholesteryl Ester Quantitation kit from Calbiochem (428901). Staining of lipid droplets Staining of lipid droplets was performed using HCS LipidTox™ Deep Green neutral lipid stain (Invitrogen H34475) according to the manufacturer's instructions. Lipid droplet staining was quantified using ImageJ. The different values represent the product of the intensity and the area covered by the fluorescent signal above background in every cell examined.
# (§3) Staining of lipid droplets was performed using HCS LipidTox™ Deep Green neutral lipid stain (Invitrogen H34475) according to the manufacturer's instructions. Lipid droplet staining was quantified using ImageJ. The different values represent the product of the intensity and the area covered by the fluorescent signal above background in every cell examined.
# [3] = tested on: cortical neurons and astrocytes from PS1-KI M146V mice; experiment: Staining of lipid droplets with LipidTox Green; format: cell-based, mouse; conditions: 100 nM BI
# Method: as §2, §3
# PS-DKO cells [4] = experiment: Conversion of fluorescent sphingomyelin to ceramide in mitochondrial membranes (TLC); format: cell-based, mouse; conditions: PS-DKO (presenilin-mutant) cells; BI
# Method: SMase activity was therefore measured in MEFs lacking APP and APLP2 (APP-DKO) (28). […] To test this, SMases was measured in PSDKO cells treated with α- and β-secretase inhibitors, to abrogate the production of C83 and C99, respectively. As controls, the γ-secretase products Aβ and AICD were also added back (FIG. 9G). […] For corroboration in vivo, PS-DKO and control cells were incubated with a fluorescent analog of sphingomyelin and analyzed its conversion to ceramide.
# To explore this further, PS-DKO and control cells were incubated with a fluorescent sphingomyelin (FL-SM) and its localization and conversion to ceramide in mitochondrial membranes was analyzed by thin-layer chromatography (TLC).
# To explore this further, we incubated PS-DKO and control cells with fluorescent sphingomyelin and analyzed its localization and conversion to ceramide in mitochondrial membranes by thin-layer chromatography (TLC).
# SH-SY5Y cells = experiment: Mitochondrial content and biogenesis (VDAC western blot; qRT-PCR); format: cell-based, human
Structure (SMILES),uptake of Bodipy-labeled fluorescent cholesterol (PS-DKO MEFs),ceramide levels (PS-DKO cells [1]),sphingomyelin levels (PS-DKO cells [1]),ceramide levels (PS-DKO cells [1]; listed as BACE1 inhibitor),sphingomyelin levels (PS-DKO cells [1]; listed as BACE1 inhibitor),"PtdSer content of membranes (PS-DKO cells [1]; PS-DKO membranes, BI)",number of lipid droplets (LDs) (PS-DKO cells [2]),number of lipid droplets (LDs) [3],increase in ceramide derived from fluorescent sphingomyelin at mitochondria (PS-DKO cells [4]),mitochondrial content or biogenesis (SH-SY5Y cells)
"C[C@@H](NC(=O)c1cc(C(=O)N[C@@H](Cc2ccccc2)[C@H](O)CNC2CC2)cc(N(C)S(C)(=O)=O)c1)c1ccccc1 [BI, β-secretase inhibitor IV]",reduced uptake,reversing the alterations in both sphingomyelin (FIG. 46E) and ceramide,reversing the alterations in both sphingomyelin,completely reversed the changes in SM and Cer levels,completely reversed the changes in SM and Cer levels,reduced the PtdSer content of PS-DKO membranes to control levels,reduced the number of LDs,reduced the number of LDs,this increase disappeared; also recorded: the elevated deposition of ceramide at mitochondria disappeared,
C[C@H](NC(=O)Cc1cc(F)cc(F)c1)C(=O)N[C@H](C(=O)OC(C)(C)C)c1ccccc1 [DAPT],,,,,,,,,,without altering mitochondrial content or biogenesis
